Data taken from article PMC4172049 (Drug Design, Development and Therapy, 2014).

Biological target: T1, Human recombinant sPLA2-V (Homo sapiens, UniProt P39877)
T1 sequence (P39877 21-138): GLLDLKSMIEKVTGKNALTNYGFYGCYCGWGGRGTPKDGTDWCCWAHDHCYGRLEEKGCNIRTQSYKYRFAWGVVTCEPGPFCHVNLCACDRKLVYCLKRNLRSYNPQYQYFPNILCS
Assay: sPLA2-V activity assay

## C[C@@H]1C[C@H]2[C@@H]3CCC4=CC(=O)C=C[C@]4(C)[C@@]3(F)[C@@H](O)C[C@]2(C)[C@@]1(O)C(=O)CO [Dexamethasone]
  IC50: 650 ± 150 nM
